Laboratory results from article PMC10051798, “Thiosemicarbazide Derivatives Targeting Human TopoIIα and IDO-1 as Small-Molecule Drug Candidates for Breast Cancer Treatment” (International Journal of Molecular Sciences, 2023).
In brackets after ≈: the same amount, converted by molar mass. Several values for one entry are separate records, joined by “and”; a condition that tells them apart may be missing. Equal values may be shown once.

Assays:
recombinant CYP2D6 = recombinant CYP2D6 (Homo sapiens, UniProt P10635); experiment: Vivid CYP2D6 Cyan screening kit; conditions: 10 µM, positive control
Protocol: According to these assays, the examined compounds are analyzed by their ability to inhibit the production of a fluorescent signal in the reaction between recombinant CYP3A4 or CYP2D6 isozymes and specific Vivid substrates. The experiments were performed in the endpoint mode of the assay, in which solutions of examined compounds were first combined with the Master Pre-mix. After a short incubation, the background fluorescence of the Master Pre-mix and the examined compounds was measured. Next, a mix of the respective Vivid substrate and NADP^+ was added in order to initiate the enzymatic reaction. After 20 min of incubation, the reaction was terminated using a stop solution and the fluorescence was measured using the recommended (by the manufacturer) excitation and emission wavelengths. […] A reaction mixture without tested compounds was used as a negative control and its fluorescence was designated as 100%. The experiments were run in triplicate and the results were presented as means ± SD.

MCF-10A cells = experiment: MTT viability assay, normal breast epithelial cells; format: cell-based, human
Protocol: Human breast cancer cells, i.e., MCF-7 (estrogen-dependent breast cancer cells) and MDA-MB-231 (estrogen-independent breast cancer cells), as well as normal human breast epithelial cells (MCF-10A) were purchased from the American Type Culture Collection (ATCC, Manassas, VA, USA). MCF-7 and MDA-MB-231 cells were cultured in DMEM (Sigma Aldrich, St. Louis, MO, USA) supplemented with 10% fetal bovine serum (FBS), penicillin (100 U/mL) and streptomycin (100 μg/mL). MCF-10A cells were cultured in Mammary Epithelial Cell Growth Medium supplemented with BPE, hEGF, insulin, hydrocortisone, GA-1000 (Lonza, Basel, Switzerland), 10% fetal bovine serum (FBS), penicillin (100 U/mL) and streptomycin (100 μg/mL). The cells were grown in T25 Cell Culture EasyFlask (Nunc, Roskilde, Denmark) at 37 °C in a humidified atmosphere of 5% CO2.
MTT assays were performed to evaluate the cytotoxic activity of the investigated compounds (1–3) against MCF-10A cells. Asuspension of cells (1 × 10^5 cells/mL) was distributed onto 96-well plates at a volume of 100 μL/well. After attachment, the cells were treated with increased concentrations of the tested compounds in medium containing 2% FBS, and incubated for 24 h. Then, 15 μL of MTT working solution (5 mg/mL in PBS) was added to each well and the plates were incubated for 3 h. Subsequently, 100 μL of 10% SDS solution was added to each well in order to dissolve the formazan formed. After overnight incubation at 37 °C, the absorbance of the obtained solution was measured at λ= 570 nm using a microplate reader (Epoch, BioTek Instruments, Inc., Winooski, VT, USA). At least two independent experiments were performed in triplicate. IC50 values of the tested compounds were calculated using the IC50 online calculator [27].

MCF-7 cells [1] = experiment: Autophagy Assay (Red kit) flow cytometry, MCF-7; format: cell-based, human; conditions: 24 h
Protocol: (§1) In order to evaluate the number of autophagosomes and autolysosomes in breast cancer cells incubated with the investigated compounds, anAutophagy Assay (Red kit) was performed (ImmunoChemistry Technologies, Bloomington, MN, USA). In short, the unfixed cells were washed and resuspended in PBS with the added autophagy probe, Red solution. Next, the cells were incubated for 30 min at 37 °C in the dark, washed, resuspended in cellular assay buffer and the provided fixative was added at a volume/volume ratio of 1:5. The samples were measured immediately after preparation by flow cytometry using the BD FACSCanto II system (BD Biosciences Systems, San Diego, CA, USA). The percentage of cells with autophagy was calculated using FACSDiva software (version 6.1.3, BD Biosciences Systems, San Diego, CA, USA).

MDA-MB-231 cells [2] = experiment: Autophagy Assay (Red kit) flow cytometry, MDA-MB-231; format: cell-based, human; conditions: 24 h
Protocol: as §1

MCF-7 cells [3] = experiment: Cell cycle analysis (PI flow cytometry), MCF-7; format: cell-based, human; conditions: MCF-7, 20 µg/mL, 24 h
Protocol: Cell cycle analyses of MCF-7 and MDA-MB-231 cells treated with compounds 1–3 and etoposide for 24 h were performed using a FACSCanto II flow cytometer (BD Bioscences Systems, San Diego, CA, USA). After incubation, breast cancer cells were trypsinized and fixed with cold ethanol (70%) and stored overnight at −20 °C. After removing ethanol, the cells were washed three times with PBS, treated with 50 μg/mL of DNase-free RNase A Solution (Promega, Madison, WI, USA) and stained with 100 μg/mL of PI. The results of measurements were analyzed using FCS Express 7 software (De Novo Software, Pasadena, CA, USA).

[4] = molecular target: T1, MDR1 (p-glycoprotein) in MDA-MB-231 cells (Homo sapiens, UniProt P08183); experiment: MDR transporter activity assay, MDR1 in MDA-MB-231; format: cell-based; conditions: MDA-MB-231, 20 µg/mL, 24 h
T1 construct: endogenous in cells; host or cells: MCF-7 and MDA-MB-231 cells
Protocol: An MDR Assay kit (Abcam, Cambridge, UK) was used following the manufacturer’s instructions. MCF-7 and MDA-MB-231 cells were incubated with compounds 1–3 (10 μg/mL and 20 μg/mL). After 24 h of incubation, the test cells were washed twice with 5 mL of PBS by centrifugation at 1200 rpm for 10 min. The supernatants were discarded and the cells were counted using a Scepter 3.0 handheld automated cell counter (Milipore, Burlington, MA, USA). Then, each of the tested samples was divided into three parts and analyzed. Tomeasure the activity of MDR1, MRP1 and BCRP (tubes 1–12), 5 μL of verapamil (MDR1 inhibitor) was added into tubes 1–3, 5 μL of MK-571 (MRP1 inhibitor) was added into tubes 4–6, 5 μL of noviobiocin (BCRP inhibitor) was added into tubes 7–9 and 125 μL DMEM with 1 μL of DMSO was added into tubes 10–12. Then, the samples were incubated at 37 °C for five minutes. After this time, 125 μL of Efflux Green Detection Reagent was added into tubes 1–12 and the samples were incubated for 30 min at 37 °C. After 25 min of incubation, 5 μL of PI was added to each tube. Thereafter, the samples were centrifuged for 10 min at 1200 rpm. The supernatants were discarded and the cells were resuspended in 500 μL of PBS and run on the flow cytometer immediately. Measurements were conducted on a BD FACSCanto II flow cytometer using FACSDiva software (version 6.1.3, BD Biosciences, San Diego, CA, USA). […] The calculations followed these formulas:MAFMDR1= 100 × (FMDR1 − F0)/FMDR1 MAFMRP= 100 × (FMRP − F0)/FMRP MAFBCRP= 100 × (FBCRP − F0)/FBCRP
• FMDR—MFI with MDR1 inhibitor (verapamil) • FMRP—MFI with MRP inhibitor (MK-571) • FBCRP—MFI with BCRP inhibitor (novobiocin) • F0—MFI without inhibitor
The theoretical range of the MAF values is between 0 and 100.

MCF-7 cells [5] = tested on: MCF-7 cells; design: method as in PMID 36345785; conditions: MTT; cited from earlier work
MDA-MB-231 cells [6] = tested on: MDA-MB-231 cells; design: method as in PMID 36345785; conditions: MTT; cited from earlier work
MCF-7 cells [7] = tested on: MCF-7 cells; design: method as in PMID 36345785; conditions: BrdU assay; cited from earlier work
MCF-7 cells [8] = experiment: Annexin V/propidium iodide flow cytometry (apoptosis), MCF-7; format: cell-based, human; conditions: MCF-7, 20 µg/mL, 24 h
Text: (§2) Flow cytometry analyses for apoptosis induction by the compounds 1–3 and etoposide wereperformedusing an FITC Annexin V Apoptosis Detection Kit II (BD Pharmingen, San Diego, CA, USA). The rationale of the assay is based on the externalization of phosphatidylserine on the surface of apoptotic cells. In early and late apoptotic cells, the phosphatidylserine translocates into the outer layer of the membrane, which allows annexin V-FITC to attach. Propidium iodide (PI) is, in turn, a fluorescent dye that penetrates into the late apoptotic and necrotic cells with impaired cell membrane integrity. Therefore, using annexin V and PI, it is possible to distinguish four groups of cells: living cells, early apoptotic cells, late apoptotic cells and necrotic cells. MCF-7 and MDA-MB-231 cells were incubated with 10 and 20 µg/mL of compounds 1–3 and etoposide (reference drug) for 24 h. After incubation, the cells were dyed with FITC-labeled annexin V and PI. The analysis was performed on a BD FACS Canto II flow cytometer using FACSDiva software (version 6.1.3, BD Biosciences Systems, San Diego, CA, USA). The equipment was calibrated with BD Cytometer Setup and Tracking Beads (BDBiosciences, San Diego, CA, USA).

MDA-MB-231 cells [9] = experiment: Annexin V/propidium iodide flow cytometry (apoptosis), MDA-MB-231; format: cell-based, human; conditions: MDA-MB-231, 20 µg/mL, 24 h
Text: as §2

caspase-8 in MCF-7 cells = experiment: FLICA caspase-8 activity flow cytometry, MCF-7; format: cell-based, human; conditions: MCF-7, 20 µg/mL, 24 h
Protocol: (§3) Caspase-8 and caspase-9 activitiesweremeasured using the FLICA Caspase-8 Assay Kit and FLICA Caspase-9 Assay Kit (ImmunoChemistry Technologies, Bloomington, MN, USA), respectively, according to the manufacturer’s protocol. In brief, MCF-7 and MDA-MB-231 breast cancer cells (1 × 10^6) were washed with cold PBS twice and re-suspended in buffer. Then, 5 μL of diluted FLICA reagent and 2 μL of Hoechst 33,342 were added to 93 μL of cell suspension, mixed by pipetting and incubated for 60 min at 37 °C. After incubation, the cells were washed twice with 400 μL of apoptosis wash buffer and centrifuged at 300× g. After the last wash, the cells were resuspended in 100 μL of apoptosis wash buffer supplemented with 10 μg/mL of PI. Analyses were performed using aBD FACSCanto II flow cytometer, and the results were analyzed with FACSDiva software (version 6.1.3, BD BiosciencesSystems, San Diego, CA, USA). To identify the involvement of caspases in apoptosis induced by compounds 1–3, the investigated breast cancer cells were pretreated with the pan-caspase inhibitor, Z-VAD-FMK (100 µM) (Sigma Aldrich, St. Louis, MO, USA), as described in [28]. The activation of caspases-8 and -9 was detected as described above.

[10] = tested on: caspase-8 in MDA-MB-231 cells; experiment: FLICA caspase-8 activity flow cytometry, MDA-MB-231; format: cell-based, human; conditions: MDA-MB-231, 20 µg/mL, 24 h
Protocol: as §3

T1 sequence (P08183 whole entry): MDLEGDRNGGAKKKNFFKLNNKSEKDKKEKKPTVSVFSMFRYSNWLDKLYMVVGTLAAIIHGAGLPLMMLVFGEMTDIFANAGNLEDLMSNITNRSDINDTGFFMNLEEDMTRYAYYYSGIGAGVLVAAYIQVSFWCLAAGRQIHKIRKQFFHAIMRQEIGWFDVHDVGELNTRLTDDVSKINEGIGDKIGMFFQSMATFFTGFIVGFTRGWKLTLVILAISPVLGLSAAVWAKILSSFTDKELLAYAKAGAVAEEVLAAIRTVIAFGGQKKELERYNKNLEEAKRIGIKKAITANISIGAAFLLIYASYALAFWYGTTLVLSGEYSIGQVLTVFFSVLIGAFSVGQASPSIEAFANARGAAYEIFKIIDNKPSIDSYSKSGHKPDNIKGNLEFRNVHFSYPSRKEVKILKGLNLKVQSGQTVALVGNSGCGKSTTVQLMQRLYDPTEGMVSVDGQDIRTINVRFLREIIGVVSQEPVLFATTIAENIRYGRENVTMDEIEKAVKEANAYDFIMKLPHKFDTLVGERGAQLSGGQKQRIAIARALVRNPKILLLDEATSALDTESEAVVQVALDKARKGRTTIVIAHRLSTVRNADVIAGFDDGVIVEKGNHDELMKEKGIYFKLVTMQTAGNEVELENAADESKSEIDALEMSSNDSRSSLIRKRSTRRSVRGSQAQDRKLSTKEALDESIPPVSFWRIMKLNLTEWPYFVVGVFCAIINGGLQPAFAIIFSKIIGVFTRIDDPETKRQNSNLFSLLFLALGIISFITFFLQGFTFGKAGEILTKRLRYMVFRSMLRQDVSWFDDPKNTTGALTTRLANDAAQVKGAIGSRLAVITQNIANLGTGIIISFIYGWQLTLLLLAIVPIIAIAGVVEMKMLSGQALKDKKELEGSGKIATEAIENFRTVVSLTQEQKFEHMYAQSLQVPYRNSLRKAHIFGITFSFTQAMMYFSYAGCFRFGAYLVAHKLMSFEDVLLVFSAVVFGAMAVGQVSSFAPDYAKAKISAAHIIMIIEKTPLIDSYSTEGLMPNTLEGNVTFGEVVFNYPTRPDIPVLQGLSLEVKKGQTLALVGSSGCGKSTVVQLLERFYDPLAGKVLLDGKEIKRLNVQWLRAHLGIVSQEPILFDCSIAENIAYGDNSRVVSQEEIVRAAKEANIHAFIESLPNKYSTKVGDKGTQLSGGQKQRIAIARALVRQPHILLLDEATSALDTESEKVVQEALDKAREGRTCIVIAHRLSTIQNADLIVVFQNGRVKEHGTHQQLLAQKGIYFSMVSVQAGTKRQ
Chain of recombinant CYP2D6 (P10635 whole entry): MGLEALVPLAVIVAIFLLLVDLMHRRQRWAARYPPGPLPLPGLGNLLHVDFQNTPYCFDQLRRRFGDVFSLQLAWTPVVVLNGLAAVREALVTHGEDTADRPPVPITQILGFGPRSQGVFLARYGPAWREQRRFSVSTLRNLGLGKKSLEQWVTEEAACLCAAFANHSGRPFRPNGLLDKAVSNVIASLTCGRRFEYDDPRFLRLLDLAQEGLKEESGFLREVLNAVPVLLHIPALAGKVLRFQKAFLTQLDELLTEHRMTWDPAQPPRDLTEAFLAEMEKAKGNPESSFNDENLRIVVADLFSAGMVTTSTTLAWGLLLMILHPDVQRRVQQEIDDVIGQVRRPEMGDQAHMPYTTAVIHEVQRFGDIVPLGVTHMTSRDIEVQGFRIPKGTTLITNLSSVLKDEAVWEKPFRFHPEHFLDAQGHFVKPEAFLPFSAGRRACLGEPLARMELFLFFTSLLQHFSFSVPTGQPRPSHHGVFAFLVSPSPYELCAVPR

Q: For `C=C[C@H]1C[N@@]2CC[C@H]1C[C@@H]2[C@@H](O)c1ccnc2ccc(OC)cc12` [guanidine], which “CYP2D6 activity vs. negative control” value (recombinant CYP2D6) is on record?
A: 11.08 ± 0.81%

Q: With `CC(C)c1cccc(C(C)C)c1NC(=S)NNC(=O)Cc1cccc2ccccc12` [Compound 1] as the compound, how does the IC50 (MCF-10A cells; Homo sapiens, MCF-10A, MTT, 24 h) read?
A: 25.3 µg/mL and 60.3 µM

Q: And the “SIMCF-7 (selectivity index)” value (MCF-10A cells; IC50 MCF-10A/IC50 MCF-7)?
A: 2.57

Q: And the “SIMDA-MB-231 (selectivity index)” value (MCF-10A cells; IC50 MCF-10A/IC50 MDA-MB-231)?
A: 2.75

Q: What about the cells undergoing autophagy (MCF-7 cells [1]; MCF-7, 10 µg/mL) of the same compound?
A: 2.5 ± 0.2%

Q: What about the cells undergoing autophagy (MCF-7 cells [1]; MCF-7, 20 µg/mL) of the same compound?
A: 11.5 ± 1.2%

Q: And the cells undergoing autophagy (MDA-MB-231 cells [2]; MDA-MB-231, 10 µg/mL (lower end of printed range))?
A: 3.0 ± 0.2%

Q: And the cells undergoing autophagy (MDA-MB-231 cells [2]; MDA-MB-231, 20 µg/mL (upper end of printed range))?
A: 5.5 ± 0.9%

Q: What about the “cells in G2/M phase” value (MCF-7 cells [3]) of the same compound?
A: 33.6%

Q: And the “cells in S phase” value (MCF-7 cells [3])?
A: 35.9%

Q: What about the “MAF MDR1” value [4] of the same compound?
A: < 20

Q: And the IC50 (MCF-7 cells [5])?
A: 23.4 ± 1.12 µM

Q: And the “IC50 MCF-7” value (MCF-7 cells [5])?
A: 9.82 ± 0.47 µg/mL (≈ 23.4 µM)

Q: And the IC50 (MDA-MB-231 cells [6])?
A: 21.9 ± 0.5 µM

Q: And the “IC50 MDA-MB-231” value (MDA-MB-231 cells [6])?
A: 9.21 ± 0.21 µg/mL (≈ 21.9 µM)

Q: And the “antiproliferative activity, times stronger than etoposide” value (MCF-7 cells [7])?
A: 46 times

Q: And the “selectivity index (SI), cancer vs normal (non-cancerous) cells” value (MCF-7 cells [7])?
A: 46.8

Q: For `COc1cc([C@@H]2c3cc4c(cc3[C@@H](O[C@@H]3O[C@@H]5CO[C@@H](C)O[C@H]5[C@H](O)[C@H]3O)[C@H]3COC(=O)[C@H]23)OCO4)cc(OC)c1O` [etoposide, reference compound], which “apoptotic cells (sum of early and late apoptotic cells)” value (MCF-7 cells [8]) is on record?
A: about 8.5%

Q: What about the “apoptotic cells (sum of early and late apoptotic cells)” value (MDA-MB-231 cells [9]) of the same compound?
A: about 8.5%

Q: And the “cells with activated caspase-8” value (caspase-8 in MCF-7 cells)?
A: 6.73%

Q: What about the “cells with activated caspase-8” value [10] of the same compound?
A: 7.2%

Q: What about the “cell population forming autophagosomes and/or autolysosomes” value (MCF-7 cells [1]; MCF-7, etoposide-treated, concentration not specified) of the same compound?
A: about 1%

Q: And the “cell population forming autophagosomes and/or autolysosomes” value (MDA-MB-231 cells [2]; MDA-MB-231, etoposide-treated, concentration not specified)?
A: about 1%
